# Assays:
# [1] = test system: Herpes Simplex Virus (HSV); conditions: known from the art; cited from earlier work
# HIV [2] = conditions: known from the art; cited from earlier work
# rabbit spermatozoa = experiment: Fertilization outcome after artificial insemination of spermatozoa pretreated with polysaccharides; format: in vivo; conditions: for anti-fertility effect of treating spermatozoa: spermatozoa treated with comparator polysaccharide
# Description: FIG. 1 is a table showing fertilization outcome after artificial insemination of spermatozoa pretreated with different polysaccharides.
# FIG. 1 illustrates the antifertility effect of cellulose sulfate on rabbit spermatozoa at a concentration as low as 0.1%.
# [3] = if used frequently; cited from earlier work
# N. gonorrhea = experiment: Infectivity of N. gonorrhea; format: cell-based; conditions: FIG. 7
# Description: FIG. 7 is a table illustrating the effects of cellulose sulfate on the infectivity of N. gonorrhea.
# (§1) Moreover, cellulose sulfate of the present invention at 1.8% has no effect on normal vaginal flora, namely Lactobacilli (FIG. 8).
# HIV [4] = experiment: HIV inhibition assay; format: cell-based; conditions: concentration of 0.005%, in vitro, FIG. 5
# Description: FIG. 5 is a table illustrating the results of HIV inhibition assay experiments.
# [5] = rabbit, in vivo
# [6] = test system: chlamydial infection of HeLa cells; experiment: Anti-chlamydial effect, chlamydial infection of HeLa cells; format: cell-based; conditions: 100 μg/ml, FIG. 9
# Experimental: FIG. 9 is a table illustrating anti-chlamydial effects of cellulose sulfate .
# FIG. 9 illustrates anti-chlamydial effect of cellulose sulfate. At a concentration of 100 μg/ml, cellulose sulfate inhibits chlamydial infection of HeLa cells by 91%.
# spermatozoa = experiment: Cervical mucus penetration experiments; format: cell-based; conditions: 1% concentration, in vitro, FIG. 3
# Description: FIG. 3 is a table providing the results of cervical mucus penetration experiments.
# human spermatozoa = experiment: Acrosome reaction of human spermatozoa; format: cell-based; conditions: FIG. 4
# Description: FIG. 4 is a table illustrating the influence of cellulose sulfate on acrosome reaction of human spermatozoa.
# Acrosome refers to the anterior organelle of the sperm head necessary for fertilization of an egg by the sperm.
# HSV = HSV infectivity experiments; format: cell-based; conditions: in vitro, FIG. 6
# Description: FIG. 6 is a table providing the results of HSV infectivity experiments.
# conception in rabbits = experiment: Contraceptive efficacy when applied vaginally; format: in vivo, rabbit
# Description: FIG. 2 is a table showing the contraceptive efficacy of cellulose sulfate when applied vaginally.
# Lactobacilli = experiment: Growth of Lactobacilli; format: cell-based; conditions: 1.8%, FIG. 8
# Description: FIG. 8 is a table illustrating the effects of cellulose sulfate on the growth of Lactobacilli.
# as §1
substance,measurement,setting,value
heparin sulfate,HSV inhibition,[1],inhibit HSV infectivity
same,HIV infectivity in vitro,HIV [2],inhibit HIV infectivity in vitro
heparin [reference compound],anti-fertility effect of treating spermatozoa,rabbit spermatozoa,little or no anti-fertility effect
nonoxynol-9,effect on natural vaginal flora,[3],inactivates the natural protective vaginal flora
same,irritation of vaginal mucus membrane,[3],causes irritation to the mucus membrane of the vagina
cellulose sulfate,concentration that can completely kill N. gonorrhea,N. gonorrhea,at least 0.01%
same,binding of HIV to human cells,HIV [4],inhibits the binding of HIV to human cells
same,vaginal irritation,[5],minimal vaginal irritation
same,vaginal irritation in combination with nonoxynol-9,[5],does not cause an increase in the vaginal irritation of nonoxynol-9
same,inhibition of chlamydial infection of HeLa cells,[6],91%
same,penetration by spermatozoa into the cervical mucus,spermatozoa,"impedes penetration by spermatozoa into the cervical mucus membrane in vitro, and to a significantly greater extent than dextran sulfate"
same,conception in rabbits inseminated with treated spermatozoa,rabbit spermatozoa; pre-treatment of spermatozoa with 1% cellulose sulfate,effectively prevented conception
same,concentration showing antifertility effect on rabbit spermatozoa,"rabbit spermatozoa; pre-treatment of spermatozoa, artificial insemination, FIG. 1",≤ 0.1%
same,acrosomal loss in human spermatozoa,human spermatozoa,"induces acrosomal loss in human spermatozoa, and to a significantly greater extent than heparin or dextran sulfate"
same,concentration inhibiting infection of human cells by HSV,HSV,≤ 0.00001%
same,percentage of fertilized oocytes compared with nonoxynol-9,"conception in rabbits; 5% cellulose sulfate vs 2.2% commercial preparation of nonoxynol-9, intravaginal, rabbits",as effective or more effective than nonoxynol-9
same,risk of conception,"conception in rabbits; 5% formulation applied intra-vaginally in rabbits, FIG. 2",reduces the risk of conception
same,"effect on normal vaginal flora, Lactobacilli",Lactobacilli,no effect
dextran sulfate,HSV inhibition,[1],inhibit Herpes Simplex Virus (HSV)
same,HIV infectivity in vitro,HIV [2],inhibit HIV infectivity in vitro
same,anti-fertility effect of treating spermatozoa,rabbit spermatozoa,little or no anti-fertility effect
